Values quoted from earlier work as cited in patent US9884842B2, “Combretastatin analogs” (The Board of Trustees of the University of Arkansas, priority 2013, dated 2018).

Assays:
Settings in all cases: background; cited from earlier work
tubulin [1] = test system: tubulin
tubulin [2] = test system: tubulin; remark: listed apart in the source
[3] = test system: multidrug resistant (MDR) cancer cell lines

Structure (SMILES): COc1ccc(/C=C\c2cc(OC)c(OC)c(OC)c2)cc1O [combretastatin A-4]
- inhibition of tubulin polymerization (tubulin [1]): inhibit tubulin polymerization
- inhibition of binding of radiolabeled colchicines to tubulin (tubulin [2]): competitively inhibit the binding of radiolabeled colchicines to tubulin
- activity against multidrug resistant (MDR) cancer cell lines [3]: active
